Patent publication US6300471A, “FSH-releasing peptides” (Board of Supervisors of Louisiana State University and …, priority 1998, dated 2001)
Entries after “also recorded” stand apart in the source; their conditions may differ. Where a SMILES comes first, the peptide text is derived from it. [ ]: non-standard residue; d: D form. pGlu = O=C1CC[C@@H](C(=O)O)N1

Assays:
[1] = tested on: hemi-anterior pituitaries of adult male rats; assay: FSH release in vitro from incubated hemi-anterior pituitaries (RIA of medium); assay type: cell-based, rat; settings: for FSH: Table 2, 3 hr incubation, KRB control 97.7 ± 20.4, n = 6
Description: (§1) After acclimatization for 5 or more days in the vivarium, male rats were killed by decapitation. Following removal of the posterior lobe, the anterior pituitary (AP) was bisected longitudinally, and each AP was incubated in a tube containing 0.5 ml Krebs-Ringer bicarbonate (5 mM ascorbic acid; pH 7.4) buffer (KRB) in an atmosphere of 95% O2 /5% CO2 in a Dubnoff shaker (50 cycles per min) for a period of 60 min. Following this pre-incubation period, the APs were incubated for 3 hr in fresh KRB buffer alone (control), or in KRB containing one of various concentrations of synthetic mammalian (m)-LHRH, l-LHRH-III, l-LHRH-I, chicken (c)-LHRH-II, or salmon (s)-LHRH. The medium was then aspirated, and was stored frozen at -20° C. until radio-immunoassays (RIA) for FSH and LH were conducted. FSH and LH were measured using kits supplied by the National Institute of Arthritis Digestive Diabetes and Kidney Disease; hormone values were expressed in terms of NIH-rFSH-RP-2 and NIH-rLH-RP-3 standards. The experiments were repeated twice. The inter- and intra-assay coefficients of variation for FSH assays were 7.5% and 5.2%, respectively; and were 6.5% and 4.8% for LH assays.

[2] = tested on: hemi-anterior pituitaries of adult male rats; assay: LH release in vitro from incubated hemi-anterior pituitaries (RIA of medium); assay type: cell-based, rat; settings: for LH: Table 3, 3 hr incubation, KRB control 139.3 ± 16.9, n = 6
Description: as §1

rats = settings: Yu et al., 1990; cited from earlier work

In the case of `CC(C)C[C@H](NC(=O)[C@H](CO)NC(=O)[C@H](Cc1ccc(O)cc1)NC(=O)[C@H](Cc1c[nH]cn1)NC(=O)[C@@H]1CCC(=O)N1)C(=O)N[C@@H](CCC(=O)O)C(=O)N[C@@H](Cc1c[nH]c2ccccc12)C(=O)N[C@@H](CCCCN)C(=O)N1CCC[C@H]1C(=O)NCC(N)=O` [l-LHRH-I, pGlu-His-Tyr-Ser-Leu-Glu-Trp-Lys-Pro-Gly-NH2] ([pGlu]HYSLEWKPG-NH2), the “FSH release in vitro, result in words” value [1] is reported as “minimal potency to release either FSH or LH; also recorded: small but statistically significant release of FSH at a concentration of 10^-5 M”, the “FSH” value ([1]; 10^-5 M) is reported as 178.2 ± 17.0 ng/mL and the “FSH” value ([1]; 10^-6 M) is reported as 164.0 ± 29.3 ng/mL. For the same compound, the “LH release in vitro, result in words” value [2] was “minimal potency to release either FSH or LH; also recorded: inactive at the two concentrations tested”, the “LH” value ([2]; 10^-5 M) was 120.4 ± 8.1 ng/mL and the “LH” value ([2]; 10^-6 M) was 134.1 ± 23.2 ng/mL. The “activity in releasing FSH or LH in rats” value (rats) was “relatively low activity in releasing either FSH or LH”.
